In data set [1] the test system is MDA-MB231-luc-D3H2LN cells. Nature of the data set: Toxicity assay under normal cell culture conditions (MTS), MDA cells. It is filed as cell-based, human. As to conditions: MDA-MB231-luc-D3H2LN cells, MEM+10% FBS, 72 h incubation, MTS. The procedure: (§1) In order to detect possible toxic effects, all compounds are tested in parallel in a viability assay. The viability assay is performed in parallel on serum-starved cells (as in the invasion assay) vs. cells under normal culture conditions (10% FBS).
(§2) Toxicity Assays (Under Normal Cell Culture Conditions):
(§3) Compounds were prepared as for the invasion assay, and then added to either MDA-MB231-luc-D3H2LN cells (2000/well) under normal culture conditions (MEM+10% FBS), or human PBMC (75000/well, in RPMI+10% FBS+IL-2) in standard 96-well tissue culture plates. After 72 h incubation, a standard MTS assay was performed according to the manufacturer's instructions (Promega Ref. G3581). Compounds were tested at various concentrations (concentration-response curves) in order to determine the concentrations at which 50% toxicity is obtained.

In the next data set the test system is human PBMC. Kind of data set: Toxicity assay under normal cell culture conditions (MTS), PBMC. It is filed as cell-based. Conditions: human PBMC, RPMI+10% FBS+IL-2, 72 h incubation, MTS. The procedure:
as §2, §3

Data set [2] has as its system MDA-MB231-luc-D3H2LN cells. Kind of data set: Invasion of MDA-MB231-D3H2LN cells into collagen (example 15 = procedure 2, 48 h drug pre-incubation). It is filed as cell-based. Conditions: concentration giving 50% of the anti-invasive effect of 10 μM Y-27632; 48 h pre-incubation, 24 h with 5% FBS; read-out: MDA: Inhib. of invasion: 0.5 × eff. of 10 μM Y-27632 at (μM) av. The procedure: Effect of Drug Compounds on Invasion of MDA-MB231-D3H2LN Cells into Collagen
Preparation of cells at the bottom of a collagen gel: Cells are suspended in a liquid collagen solution (4° C.), distributed into BSA-coated wells, and then collected at the bottom of the wells by centrifugation. The collagen is then solidified by incubation at 37° C. The BSA coating improves the adhesion of the collagen gel.
Pre-treatment with the compounds to be tested: Concentrated drug solutions are then added on top of the collagen, and cells are pre-incubated for 48 h with the drugs at low serum conditions (0.025% FBS).
Stimulation of invasion: Medium with 5% FBS is then added in order to stimulate invasion of the cells into the collagen gel.
(§4) Viability assay, fixation and staining: Following another 24 h incubation, an MTS assay is performed directly on the cells in the collagen. Then, cells are fixed and nuclei are stained.
Analysis: Finally, plates are analyzed using an automated microscope. Fluorescent beads that have been included into the BSA coating serve to detect the bottom of the wells. Pictures of the stained nuclei are taken at the same level (0 μm) as well as 25 μm and 50 μm above.
Negative control: No drug (just DMSO at equivalent concentration). Positive control: 10 μM Y-27632. To avoid edge effects, cells are added only to the 60 central wells B2-G11; lines A and H receive only collagen without cells (blank for the MTS assay) columns 1 and 12 remain free. Each drug is tested at least in triplicate. The positive and negative controls should be tested in several triplicates at different positions on each plate. Typical plate map (−=negative control, +=positive control, 1-12=12 different test conditions, i. e. different drug compounds or concentrations):
Preparation of 4× concentrated drug solutions in MEM+0.1% FBS+2% Lutrol E-400+0.8% DMSO: Mix each 620 μl MEM+0.1% FBS+2% Lutrol E-400 with each 4 μl DMSO+each 1 μl of the 50 mM compound stock solutions (yielding […] and 0.8% DMSO). If the desired final compound concentration is <5 μM, then further dilute in MEM+0.1% FBS+0.8% DMSO. Negative control: MEM+0.1% FBS+2% Lutrol E-400+0.8% DMSO without any drug. Preparation of the positive control: Mix 4.5 ml MEM+0.1% FBS+2% Lutrol E-400+[…] with 36 μl 5 mM Y-27632 (freshly thawed aliquot) (yielding 40 μM).
add each 33 μl/well of the 4× concentrated drug solutions in MEM+0.1% FBS+2% Lutrol E-400+0.8% DMSO to the corresponding wells (yields 1× concentrated drugs in MEM+0.025% FBS+0.5% Lutrol E-400+0.2% DMSO final)
incubate 48 h at 37° C./5% CO2
incubate 24 h at 37° C./5% CO2
for each well, calculate the mean invasion distance of the counted cells: (25 μm×number of cells at 25 μm+50 μm×number cells at 50 μm)/sum of cells at 0, 25 and 50 μm
invalidate any replicate with a CV≥50% (compound to be re-tested, or assay to be repeated if CV≥50% for the untreated negative control or the compound Y-27632-treated positive control). Y27632 is a selective inhibitor of the Rho-associated protein kinase p160ROCK of the following formula
validate the assay only if the mean invasion distance of the cells treated with 10 μM Y-27632 (positive control) is decreased by ≥40% as compared to the untreated negative control
(§5) Final analysis: Determine the concentration at which a given compound has 50% of the anti-invasive effect of the positive control (10 μM Y-27632). Determine the toxicity (=loss of viability) of the compound under these conditions.
Here, invasion (into collagen) is the concentration of the compound necessary to reach 50% of the inhibition effect compared to 10 μM Y-27632.
Standard operating procedure 2 is exactly the same as the procedure as described in example 15.

Another data set has as its target T1, hERG channel (Homo sapiens, UniProt Q12809).
T1 construct: host or cells: HEK293
Nature of the data set: hERG channel inhibition (electrophysiology, hERG-transfected HEK293 cells). In kind it is cell-based. The procedure:
Performed by Porsolt & Partners (Z. A. de Glatigné, 53940 Le Genest-Saint-Isle, France). Briefly, each 3 hERG-transfected HEK293 cells were superfused with the compounds at 1 and 10 μM, and the hERG channel current was measured by electrophysiology, as described by Crumb et al., J. Pharmacol. Exp. Ther. 2000.

In data set [3] the test system is MDA-MB231-luc-D3H2LN cells. Kind of data set: Viability (MTS) assay on the cells in collagen under invasion assay conditions. It is filed as cell-based, human. Conditions: loss of viability at the concentration giving 0.5 × effect of 10 μM Y-27632, invasion assay conditions. The procedure: as §4, §1
Viability Assay: MTS Assay:
add each 33 μl/well of the MTS reagent, incubate 3-4 h at 37° C./5% CO2
read absorbance at 490 nm (proportional to the viability)
calculate the background-corrected signals by subtracting the means of the background signals in absence of cells from the corresponding signals in presence of cells
normalize the background-corrected signals with respect to the mean signal of the negative controls (no drug) (viabilities are thus expressed in “% of control”)
as §5

SMILES strings stand for the structures.

T1 sequence (Q12809 whole entry): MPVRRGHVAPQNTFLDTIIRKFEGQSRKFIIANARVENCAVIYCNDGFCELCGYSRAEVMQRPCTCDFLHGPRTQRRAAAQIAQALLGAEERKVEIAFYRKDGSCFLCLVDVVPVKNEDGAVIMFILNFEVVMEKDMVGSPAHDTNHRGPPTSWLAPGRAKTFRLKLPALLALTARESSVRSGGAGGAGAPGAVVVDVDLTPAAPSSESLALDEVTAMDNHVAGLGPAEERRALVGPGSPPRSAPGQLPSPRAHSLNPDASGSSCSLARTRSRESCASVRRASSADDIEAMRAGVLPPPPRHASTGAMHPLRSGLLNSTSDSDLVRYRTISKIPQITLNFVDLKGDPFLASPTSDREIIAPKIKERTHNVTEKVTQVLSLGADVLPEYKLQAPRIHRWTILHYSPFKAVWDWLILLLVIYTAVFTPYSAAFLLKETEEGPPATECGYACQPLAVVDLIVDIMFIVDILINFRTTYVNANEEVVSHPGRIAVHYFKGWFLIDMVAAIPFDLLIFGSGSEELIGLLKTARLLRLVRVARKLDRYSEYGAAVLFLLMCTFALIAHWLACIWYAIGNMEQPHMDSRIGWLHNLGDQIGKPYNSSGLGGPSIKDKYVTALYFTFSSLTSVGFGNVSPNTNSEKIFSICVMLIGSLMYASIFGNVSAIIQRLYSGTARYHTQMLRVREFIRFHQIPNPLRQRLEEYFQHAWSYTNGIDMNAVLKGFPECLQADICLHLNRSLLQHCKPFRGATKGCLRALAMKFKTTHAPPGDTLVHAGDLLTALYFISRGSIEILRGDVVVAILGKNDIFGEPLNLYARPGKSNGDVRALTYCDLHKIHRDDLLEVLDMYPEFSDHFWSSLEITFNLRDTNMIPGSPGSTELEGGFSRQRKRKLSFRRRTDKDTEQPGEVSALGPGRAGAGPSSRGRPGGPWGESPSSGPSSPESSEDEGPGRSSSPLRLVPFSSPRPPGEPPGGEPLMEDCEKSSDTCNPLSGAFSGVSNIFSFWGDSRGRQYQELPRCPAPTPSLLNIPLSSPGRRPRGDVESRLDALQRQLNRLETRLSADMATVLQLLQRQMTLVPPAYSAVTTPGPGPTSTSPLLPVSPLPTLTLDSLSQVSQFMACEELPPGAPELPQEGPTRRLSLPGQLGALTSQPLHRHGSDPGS

Turning to `CCN(CC)CCCNC(=O)c1cccc(Nc2cccc(C(=O)Nc3ccccn3)c2)c1` [Compound 11, N-(3-(diethylamino)propyl)-3-((3-(pyridin-2-ylcarbamoyl)phenyl)amino)benzamide], in data set [1], the “MDA tox: 50% tox. at (μM) av” value was found to be 44 µM. Also, the “PBMC tox.: 50% tox. at (μM) av” value with human PBMC came to 47 µM. The IC50 in data set [2] was above 2 µM. In addition, the “% hERG inhibition in transfected HEK (n = 3) at 1 μM av” value on hERG channel (1 μM compound) was 64%. In addition, on hERG channel (10 μM compound), the “% hERG inhibition in transfected HEK (n = 3) at 10 μM av” value amounted to 87%.

As for `CCN(CC)CCCNC(=O)c1cccc(Nc2cccc(C(=O)N(C)c3ccncc3)c2)n1` [Compound 37, N-(3-(diethylamino)propyl)-6-((3-(methyl(pyridin-4-yl)carbamoyl)phenyl)amino)picolinamide], the “MDA tox: 50% tox. at (μM) av” value in data set [1] was >>100 μM. Moreover, in the data set with human PBMC, the “PBMC tox.: 50% tox. at (μM) av” value is >>100 μM. Also, the IC50 in data set [2] was found to be 3.75 µM. For the same compound, the “(+ MDA tox. under these cond.) % tox” value in data set [3] is below 10%.

On to `CCN(CC)CCCNC(=O)c1ccnc(Nc2cccc(C(=O)N(C)c3ccncc3)c2)c1` [Compound 38, N-(3-(diethylamino)propyl)-2-((3-(methyl(pyridin-4-yl)carbamoyl)phenyl)amino)isonicotinamide], for which the “MDA tox: 50% tox. at (μM) av” value in data set [1] is listed as >>100 μM. The “PBMC tox.: 50% tox. at (μM) av” value in the data set on human PBMC was >>100 μM. Moreover, in data set [2], the IC50 is 3.75 µM. In data set [3], the “(+ MDA tox. under these cond.) % tox” value is recorded as below 10%.

As for `CN1CCN(CCCNC(=O)c2ccnc(Nc3cccc(C(=O)N(C)c4ccncc4)c3)c2)CC1` [Compound 39, 2-((3-(methyl(pyridin-4-yl)carbamoyl)phenyl)amino)-N-(3-(4-methylpiperazin-1-yl)propyl)isonicotinamide], the “MDA tox: 50% tox. at (μM) av” value in data set [1] stood at 19 µM. In addition, the “PBMC tox.: 50% tox. at (μM) av” value in the data set on human PBMC is 74 µM. Besides, the IC50 in data set [2] stood at 1.45 µM. The “(+ MDA tox. under these cond.) % tox” value in data set [3] is given as below 10%.

On to `CN1CCN(CCCNC(=O)c2ccnc(Nc3cccc(C(=O)Nc4ccncn4)c3)c2)CC1` [Compound 42, N-(3-(4-methylpiperazin-1-yl)propyl)-2-((3-(pyrimidin-4-ylcarbamoyl)phenyl)amino)isonicotinamide], for which the “MDA tox: 50% tox. at (μM) av” value in data set [1] was at least 100 µM. In the data set with human PBMC, the “PBMC tox.: 50% tox. at (μM) av” value is above 100 µM. The IC50 in data set [2] turned out to be 0.2 µM. For the same compound, the “(+ MDA tox. under these cond.) % tox” value in data set [3] is on record as below 10%.

`CCN(CC)CCCNC(=O)c1cccc(Nc2cc(C(=O)Nc3ccncc3)ccn2)n1` [Compound 43, N-(3-(diethylamino)propyl)-6-((4-(pyridin-4-ylcarbamoyl)pyridin-2-yl)amino)picolinamide]: in data set [1], the “MDA tox: 50% tox. at (μM) av” value is above 100 µM. For the same compound, the “PBMC tox.: 50% tox. at (μM) av” value in the data set on human PBMC was above 100 µM. Also, the IC50 in data set [2] worked out at 3.25 µM. Further, in data set [3], the “(+ MDA tox. under these cond.) % tox” value is given as below 10%.

As to `CCN(CC)CCCNC(=O)c1ccnc(Nc2cc(C(=O)Nc3ccncc3)ccn2)c1` [Compound 44, N-(3-(diethylamino)propyl)-2-((4-(pyridin-4-ylcarbamoyl)pyridin-2-yl)amino)isonicotinamide], in data set [1], the “MDA tox: 50% tox. at (μM) av” value was above 100 µM. The “PBMC tox.: 50% tox. at (μM) av” value in the data set with human PBMC is above 100 µM. In addition, the IC50 in data set [2] was 1.15 µM. Besides, the “(+ MDA tox. under these cond.) % tox” value in data set [3] is reported as below 10%.

As for `CN1CCN(CCCNC(=O)c2ccnc(Nc3cc(C(=O)Nc4ccncc4)ccn3)c2)CC1` [Compound 45, N-(3-(4-methylpiperazin-1-yl)propyl)-2-((4-(pyridin-4-ylcarbamoyl)pyridin-2-yl)amino)isonicotinamide], the “MDA tox: 50% tox. at (μM) av” value in data set [1] was above 100 µM. For the same compound, the “PBMC tox.: 50% tox. at (μM) av” value in the data set with human PBMC was above 100 µM. Also, in data set [2], the IC50 was determined as 0.38 µM. The “(+ MDA tox. under these cond.) % tox” value in data set [3] is reported as below 10%.

Turning to `CCN(CC)CCCNC(=O)c1cccc(Nc2cc(C(=O)Nc3ccncc3)ccn2)c1` [Compound 47, 2-((3-((3-(diethylamino)propyl)carbamoyl)phenyl)amino)-N-(pyridin-4-yl)isonicotinamide], in data set [1], the “MDA tox: 50% tox. at (μM) av” value is above 100 µM. The “PBMC tox.: 50% tox. at (μM) av” value with human PBMC was above 100 µM. Further, the IC50 in data set [2] came to 2.2 µM. Besides, the “(+ MDA tox. under these cond.) % tox” value in data set [3] is below 10%.

In the case of `O=C(NCCCN1CCOCC1)c1cccc(Nc2cc(C(=O)Nc3ccncc3)ccn2)c1` [Compound 48, 2-((3-((3-morpholinopropyl)carbamoyl)phenyl)amino)-N-(pyridin-4-yl) isonicotinamide], the “MDA tox: 50% tox. at (μM) av” value in data set [1] amounted to 80 µM. In addition, the “PBMC tox.: 50% tox. at (μM) av” value in the data set on human PBMC was 26 µM. In addition, the IC50 in data set [2] came out at 0.75 µM. Also, the “(+ MDA tox. under these cond.) % tox” value in data set [3] was below 10%.

Turning to `O=C(NCCCN1CCCC1)c1cccc(Nc2cc(C(=O)Nc3ccncc3)ccn2)c1` [Compound 50, N-(pyridin-4-yl)-2-((3-((3-(pyrrolidin-1-yl)propyl)carbamoyl)phenyl)amino) isonicotinamide], in data set [1], the “MDA tox: 50% tox. at (μM) av” value is at least 100 µM. Also, the “PBMC tox.: 50% tox. at (μM) av” value with human PBMC is above 100 µM. Besides, the IC50 in data set [2] was found to be 1.88 µM. In addition, in data set [3], the “(+ MDA tox. under these cond.) % tox” value was below 10%.

Regarding `CN1CCN(CCCNC(=O)c2cccc(Nc3cc(C(=O)Nc4ccncc4)ccn3)c2)CC1` [Compound 51, 2-((3-((3-(4-methylpiperazin-1-yl)propyl)carbamoyl)phenyl)amino)-N-(pyridin-4-yl)isonicotinamide], in data set [1], the “MDA tox: 50% tox. at (μM) av” value was at least 100 µM. The “PBMC tox.: 50% tox. at (μM) av” value with human PBMC is above 100 µM. For the same compound, the IC50 in data set [2] amounted to 0.3 µM. In addition, in data set [3], the “(+ MDA tox. under these cond.) % tox” value is below 10%.

For the origin of these results see patent US9969715B2, “Compounds useful for treating cancer” (ABIVAX, priority 2012, dated 2018).
